The results in this text go back to US8722014B2, “1 H-[1, 2, 3] triazole substituted amino acids and uses thereof” (Washington University, priority 2009, dated 2014).

The test system of the test is 9L gliosarcoma cells. Briefly: Cell uptake assay in 9L gliosarcoma cells with amino acid transport inhibitors (cluster tray method). The class given is cell-based. The conditions noted are these: for percent uptake relative to control, Na ASC: L-Ala/L-Ser/L-Cys 3.3 mM each. As for the experimental part:
The 9L gliosarcoma tumor is an established model for human glioblastoma (brain tumor). Cell uptake assays were performed with 9L gliosarcoma cells using both (R)-[^18F]4 and (S)-[^18F]4. 9L gliosarcoma cells were cultured with Earle's minimal essential medium (MEM) augmented with 10% newborn calf serum, 1% 200 mM L-glutamine, 1% MEM vitamin solution and 1% 10 mM non-essential amino acids (NEAA). The cells were passaged every two to three days prior to use with no more than a total of 20 passages. Two to three days before the uptake assays, suspension of 2.5 or 5.0×10^4 cells in culture media were aliquoted into Costar 24 well plates to achieve log growth phase with approximately 70% confluency at the time of the uptake assay (approximately 10^5 cells per well).
Cell uptake assays were performed using the cluster tray method reported in Gazzola et al., Anal. Biochem. 115: 368-374, 1981. Two buffers were used for the assays, a phosphate buffered saline solution and a sodium-free phosphate buffered choline chloride solution. […] The choline buffer was the same as the sodium buffer except choline chloride was substituted for sodium chloride and choline phosphate dibasic was substituted for sodium phosphate dibasic. A 250 mM solution of choline phosphate dibasic was prepared by boiling 95.6 mL of 75% of choline bicarbonate (0.500 mol) and 16.9 mL of 85% aqueous phosphoric acid (0.247 mol) in 750 mL of water for 60 min. The solution was brought to a total volume of 1 liter with water and brought to pH 7.4 with concentrated aqueous hydrochloric acid. The pH of the sodium and choline buffer solutions was adjusted to 7.4 with concentrated aqueous hydrochloric acid prior to use.
A variety of inhibitor conditions were used to determine which amino acid transport system or systems were responsible for cellular uptake of (R)- and (S)-[^18F]-4. The N-methylated amino acid, methylaminoisobutyric acid (MeAIB), is a selective system A substrate and has been used extensively as a competitive inhibitor of system A transport (Shotwell, M. A., et al. Biochem. Biophys. Acta. 737: 267-284, 1983; Christensen, H. N., et al., J. Biol. Chem. 240: 3609-3616, 1965) The bulky neutral amino acid, 2-aminobicyclo-(2,2,1)-heptane-2-carboxylic acid (BCH), has been extensively used as a competitive inhibitor of system L transport, and under sodium-free conditions BCH is a selective system L inhibitor (Palacin, M., et al., Physiol. Rev. 78: 969-1054, 1998. In the presence of sodium, BCH is also an inhibitor of system B^0,+ which is a sodium-dependent amino acid transporter that typically is a minor transport systems in most tissues. A mixture of L-alanine (L-Ala), L-serine (L-Ser) and L-cysteine (L-Cys), (ASC), was used as a non-specific inhibitor condition, and this combination of amino acids is expected to inhibit a broad range of amino acid transport systems including system ASC. Because of the results of initial cell uptake assays described below and the structural relationship of the 1H-1,2,3-triazole group to the imidazole side chain of L-histidine (L-His), additional uptake assays using L-His as well as the basic side chain amino acids L-arginine (L-Arg) and L-lysine (L-Lys) individually and together (RKH) as competitive inhibitors were performed.
The following inhibitors were added to the appropriate sodium or choline buffer: N-methyl aminoisobutyric acid (MeAIB, 10 mM), a mixture of L-alanine/L-serine/L-cysteine (ASC, 3.3 mM of each amino acid), (R,S)-(endo,exo)-2-aminobicyclo(2,2,1)-heptane-2-carboxylic acid (BCH, 10 mM), L-arginine (Arg, 10 mM), L-lysine (Lys, 10 mM), L-histidine (His, 10 mM) and a mixture of Arg/Lys/H is (RKH, 3.3 mM of each amino acid). For control conditions, 10 mM of sucrose was added to maintain consistent osmolality relative to the inhibitor conditions. The pH of each solution of inhibitor in buffer was adjusted as necessary to 7.40 with 3 M aqueous hydrochloric acid prior to use in cell uptake assays. […]

On to `Cl.N[C@@H](Cc1cn(CC[18F])nn1)C(=O)O` [(S)-[^18F]4, (S)-2-amino-3-[1-(2-fluoroethyl)-1H-[1,2,3]triazol-4-yl]propanoic acid hydrochloride salt-[^18F]], for which the “inhibition of uptake by ASC condition relative to the sodium control” value (neutral amino acid inhibitor assay, p<0.001) was 89%. Besides, under “range over the three basic amino acids”, the “inhibition of uptake by L-His, L-Arg and L-Lys” value is 50-69%. Further, where the note is “sodium buffer”, the “inhibition of uptake by L-Arg relative to control” value was 50% and the “inhibition of uptake by L-His relative to control” value came to 69%. The “percent uptake relative to control, Na RKH” value (sodium buffer, Arg/Lys/His 3.3 mM each (FIG. 4/6)) came to 37±6%. The “percent uptake relative to control, Na BCH” value (sodium buffer, BCH 10 mM, 30 sec uptake, neutral amino acid inhibitor assay (FIG. 3/5)) stood at 74±13%. Besides, the “percent uptake relative to control, Na ASC” value (sodium buffer, 30 sec uptake, neutral amino acid inhibitor assay (FIG. 3/5)) is 11±7%. Besides, the “percent uptake relative to control, Na ASC” value (sodium buffer, basic side chain amino acid inhibitor assay (FIG. 4/6)) is 2.4±3.5%. Moreover, the “percent uptake relative to control, Na Arg” value (sodium buffer, L-arginine 10 mM (FIG. 4/6)) is given as 50±9%. In addition, the “percent uptake relative to control, Na His” value (sodium buffer, L-histidine 10 mM (FIG. 4/6)) came to 31±5%. The “percent uptake relative to control, Na Lys” value (sodium buffer, L-lysine 10 mM (FIG. 4/6)) turned out to be 46±4%. Further, where the note is “sodium buffer, MeAIB 10 mM, 30 sec uptake, neutral amino acid inhibitor assay (FIG. 3/5)”, the “percent uptake relative to control, Na MeAIB” value came to 82±7%. Moreover, the “inhibition of uptake by BCH versus control in the presence of sodium” value (sodium control vs sodium BCH) is given as 26%. Also, for the setting “sodium control vs. choline control”, the “inhibition of uptake by substituting choline for sodium” value is recorded as 42%. Besides, under “sodium free conditions”, the “reduction of uptake by BCH relative to the choline control” value is given as “approximately 50%”. Further, under “sodium-free choline buffer, BCH 10 mM, relative to sodium control (FIG. 3/5)”, the “percent uptake relative to control, Cho BCH” value is reported as 30±6%. Where the note is “sodium-free choline buffer, sucrose 10 mM, relative to sodium control (FIG. 3/5)”, the “percent uptake relative to control, Cho sucrose” value is recorded as 58±7%. Besides, under “system A inhibitor MeAIB, sodium buffer”, the “inhibition of uptake by MeAIB” value was “no significant inhibition”.
